The values that follow are results of earlier work, collected in US10160778B2, “Pyrimidine phosphonic acid esters” (Concert Pharmaceuticals, Inc., priority 2014, dated 2018).

The conditions of the data set: phase II study for the prevention of cytomegalovirus infection.

As for `CCCCCCCCCCCCCCCCOCCCOP(=O)(O)CO[C@H](CO)Cn1ccc(N)nc1=O` [brincidofovir, 3-(hexadecyloxy)propyl hydrogen ((((S)-1-(4-amino-2-oxopyrimidin-1 (2H)-yl)-3-hydroxypropan-2-yl)oxy)methyl)phosphonate], the dose-limiting side effect entry is reported as “diarrhea”.
